Series [1] can be described thus: Desolvation/dehydration studies under various drying conditions (XRPD). The class given is physicochemical. The note with it: for Solid form after exposure to ambient conditions: eight days. As to the method: Desolvation studies under various conditions may be performed to investigate the effects of drying conditions on the C-type crystals. […] However, the anhydrous form to which C-type crystals convert may be dependent on the drying conditions and temperature.
Desolvation studies under various conditions may be conducted to investigate the effects of drying conditions on F-type crystals.
Dehydration studies under various conditions are performed to investigate the effects of drying conditions on the I-type crystals.

The nature of series [2]: Moisture sorption/desorption analysis. The class given is physicochemical. The note with it: for Weight lost upon desorption: after sorption to 95% RH; for Solid material after moisture sorption identified by XRPD: after sorption/desorption 5 to 95% RH; for Moisture sorption: total weight gain: between 5% and 95% relative humidity (RH); for Hygroscopicity based on the moisture sorption data: exposed to high relative humidity. As to the method:
Moisture sorption/desorption analyses may be performed, e.g., on a VTI SGA-100 Vapor Sorption Analyzer Sorption and desorption data are collected, e.g., over a range of 5 to 95% relative humidity (RH) at 10% RH intervals under a nitrogen purge. Samples need not to be dried prior to analysis. Equilibrium criteria used for analysis are, e.g., less than 0.01% weight change in 5 min, with a maximum equilibration time of 3 h if the weight criterion is not met NaCl and PVP may used as calibration standards.

Series [3] can be described thus: Stability to mechanical grinding/milling followed by vapor stress (XRPD). The format is physicochemical. The conditions noted are these: ball-milling, then about 97% relative humidity, K2SO4 humidity jar, 1 day. The text has this:
Stability to grinding may be assessed by measurement of an appropriate physical property before and after grinding. Where the physical property remains substantially unchanged substantial stability to grinding is indicated. Suitable physico-chemical properties for measurement include a melting point or DSC analysis, a X-ray diffraction pattern, an infrared absorption spectrum and a Raman spectrum, particularly the X-ray diffraction pattern.
Stability to mechanical grinding/milling may be tested, e.g., by employing a small stainless steel cylinder The cylinder is charged with a weighted amount of a crystal form of MRE-0094 and a stainless steel ball is added, the cylinder is capped and the unit is placed on a Retsch Mixer Mill (Type MM 200) for a total of 30 min at a frequency of 30/s (ball-milling).

The subject of series [4] is neuropathic, diabetic foot ulcers (DFU). Description: Phase I study of topical MRE-0094 gel: wound closure. The note with it: DFU patients; for % Wound Closure (Day 28): topically once daily for 28 days; for Median Number of Days to: 50% Closure / Median Number of Days to: 75% Closure: topically once daily. The format is in vivo. As to the method: (§1) MRE-0094 is administered to patients with neuropathic, diabetic foot ulcers (DFU). Patients 18-80 years old are randomized in a 1:3 ratio to a standard DFU care and a vehicle gel, or a standard DFU care and a gel containing MRE-0094 as described herein above. Standard care include routine sharp debridement, pressure offloading, and maintaining a moist wound environment. Inclusion criteria includes full thickness wounds between 1 and 10 cm^2 in area. Exclusion criteria includes arterial insufficiency, renal or hepatic insufficiency, active infection, or osteomyelitis. Patients are enrolled into 3 groups, and receive drug at an escalating concentration by group of 5 μg/g, 50 μg/g, or 500 μg/g. Safety data are reviewed by an independent safety board prior to escalating dose. Drug or vehicle is applied topically once daily for 28 days. Outcome measures include adverse events and other safety assessments, plasma concentrations of the active agent MRE-0094, percent of wound closure, and rate of wound closure. Thirty-six patients are randomized (25 active agent, 11 vehicle gel, i.e., placebo) with an average age of 54.8 years, 78% are male.

Series [5] in a line: Phase I study: plasma concentrations of MRE-0094 (systemic absorption). The class given is in vivo, patients. The note with it: any topical dose concentration (5, 50, 500 μg/g gel). As to the method: as §1
The subject of the next series is diabetic ulcers. The note with it: healthy BALB/C mice; cited from earlier work.
Series [6] is described as follows: Approximate solubilities of A-type crystals of MRE-0094 in test solvents. The format is physicochemical. The conditions noted are these: thermodynamic from solid. As to the method:
Weighed samples of MRE-0094 (typically 30-60 mg) are treated with aliquots of the test solvent. Solvents are either reagent or HPLC grade. The aliquots are usually 200 μL or 500 μL. Between additions the mixtures are sonicated. […] Note that actual solubilities may be greater than those calculated due to the volume of the solvent aliquots or to a slow rate of dissolution. […] The solubilities are reported to the nearest mg/mL.

A short description of series [7]: Heat stress studies and variable temperature XRPD. The class given is physicochemical. As to the method: For heat stress studies, samples of MRE-0094 A-type crystals are heated isothermally at different temperatures to investigate the effect of temperatures on solid state conversions. The samples are heated for up to 15 min. The solid material is allowed to cool before analyzing by XRPD.
(2 min). Variable temperature XRPD (VT-XRPD) may be performed on A-type crystals of MRE-0094 to better understand its thermal behavior. […] The sample remains as B-type crystals up to 165° C. […] It is likely that the melting of B-type crystals, subsequent recrystallization, and final melting of the solid occurs too fast to be captured by VT-XRPD. Based on the VT-XRPD data, the thermal events observed by DSC at approximately 117° C. and 126° C. are due to the solid conversion followed by the subsequent recrystallization to form B-type crystals.

Series [8] can be described thus: Approximate solubilities of A-type crystals of MRE-0094 in test solvents. The class given is physicochemical. The note with it: organic solvent or mixture, thermodynamic from solid; PG, RT; agitated two days, calculated from difference between starting and ending weights.

In brackets after ≈: the same amount, converted by molar mass.

With `Nc1nc(OCCc2ccc(Cl)cc2)nc2c1ncn2[C@@H]1O[C@H](CO)[C@@H](O)[C@H]1O` [C-type crystal form, 2-[2-(4-chlorophenyl)ethoxy]adenosine], the “Solid form after exposure to ambient conditions” value in [1] is “does not completely convert to A-type crystals”. Also, in series [1] (heated at 60° C. for eight days or dried in vacuo for six days), the “Solid form after desolvation” value was “convert to A-type crystal form”.
As to `Nc1nc(OCCc2ccc(Cl)cc2)nc2c1ncn2[C@@H]1O[C@H](CO)[C@@H](O)[C@H]1O` [G-type crystal form, 2-[2-(4-chlorophenyl)ethoxy]adenosine], in [2], the “Weight lost upon desorption” value is “Approximately 2.2%”, the “Solid material after moisture sorption identified by XRPD” value (“Solid material” below) is recorded as “G-type crystal form”, the “Moisture sorption: total weight gain” value is “approximately 2.4%” and the “Hygroscopicity based on the moisture sorption data” value (“Hygroscopicity based” below) is “hygroscopic”. Moreover, the “Stability to mechanical milling followed by vapor stress” value in series [3] is “substantially stable”.
Turning to `Nc1nc(OCCc2ccc(Cl)cc2)nc2c1ncn2[C@@H]1O[C@H](CO)[C@@H](O)[C@H]1O` [B-type crystal form, 2-[2-(4-chlorophenyl)ethoxy]adenosine], in series [2], the “Weight lost upon desorption” value is “Approximately 3.7%”, the “Solid material” value is listed as “B-type crystal form”, the “Moisture sorption: total weight gain” value is recorded as “approximately 3.9%” and the “Hygroscopicity based” value is reported as “hygroscopic”.
On to `Nc1nc(OCCc2ccc(Cl)cc2)nc2c1ncn2[C@@H]1O[C@H](CO)[C@@H](O)[C@H]1O` [I-type crystal form, 2-[2-(4-chlorophenyl)ethoxy]adenosine], for which, in series [1] (various drying conditions), the “Solid form after dehydration” value is “either B-type, or a mixture of A-type and B-type crystals”.
For `Nc1nc(OCCc2ccc(Cl)cc2)nc2c1ncn2[C@@H]1O[C@H](CO)[C@@H](O)[C@H]1O` [MRE-0094, 2-[2-(4-chlorophenyl)ethoxy]adenosine], in [4] (5 μg/g gel), the “% Wound Closure (Day 28)” value is recorded as 60.7%, the “Median Number of Days to: 50% Closure” value was found to be 8 days and the “Median Number of Days to: 75% Closure” value turned out to be 14 days. Further, in series [4] (50 μg/g gel), the “% Wound Closure (Day 28)” value came out at 67.5%, the “Median Number of Days to: 50% Closure” value was found to be 12 days and the “Median Number of Days to: 75% Closure” value was determined as 28 days. For the same compound, in series [4] (500 μg/g gel), the “% Wound Closure (Day 28)” value was found to be 35.4%, the “Median Number of Days to: 50% Closure” value was found to be 14 days and the “Median Number of Days to: 75% Closure” value is 36 days. In addition, the “Systemic absorption of MRE-0094” value in series [5] is “No systemic absorption”. For the same compound, in the series on diabetic ulcers, the “Wound healing of diabetic ulcers” value was “promote wound healing”.
In general, solubility refers to the dissolved amount per volume that the medium holds. On to `Nc1nc(OCCc2ccc(Cl)cc2)nc2c1ncn2[C@@H]1O[C@H](CO)[C@@H](O)[C@H]1O` [A-type crystal form, 2-[2-(4-chlorophenyl)ethoxy]adenosine], for which the solubility in series [6] (aqueous with cosolvent or surfactant or cyclodextrin, EtOH:water - 1:1, RT) was 9000 µg/mL (≈ 21.3 mM); in series [6] (aqueous with cosolvent or surfactant or cyclodextrin, water:PG - 1:1, RT) it was 6000 µg/mL (≈ 14.2 mM); in [6] (organic solvent or mixture, 1,4-dioxane, RT), 17000 µg/mL (≈ 40.3 mM); in [6] (organic solvent or mixture, ACN, RT) it was under 3000 µg/mL; in series [6] (organic solvent or mixture, DCM, RT) it was under 2000 µg/mL; in series [6] (organic solvent or mixture, DMF, RT) it was 179000 µg/mL (≈ 424 mM). The solubility in series [6] (organic solvent or mixture, EtOAc, RT) was under 4000 µg/mL; in [6] (organic solvent or mixture, EtOH, RT), 7000 µg/mL (≈ 16.6 mM); in series [6] (organic solvent or mixture, EtOH:water - 19:1, RT) it was 12000 µg/mL (≈ 28.4 mM); in series [6] (organic solvent or mixture, IPA, RT), 4000 µg/mL (≈ 9.48 mM); in [6] (organic solvent or mixture, MEK, RT), 4000 µg/mL (≈ 9.48 mM); in series [6] (organic solvent or mixture, MeOH, RT), 4000 µg/mL (≈ 9.48 mM). Also, the solubility in series [6] (organic solvent or mixture, TFE, RT) is 11000 µg/mL (≈ 26.1 mM); in series [6] (organic solvent or mixture, THF, RT) it was 23000 µg/mL (≈ 54.5 mM); in [6] (organic solvent or mixture, acetone, RT) it was 5000 µg/mL (≈ 11.9 mM); in series [6] (organic solvent or mixture, heptane, RT), under 4000 µg/mL; in series [6] (organic solvent or mixture, toluene, RT), under 4000 µg/mL; in series [6] (water, RT) it was under 300 µg/mL. Besides, in series [2], the “Solid material” value was “A-type crystal form”. Moreover, the “Moisture sorption: total weight gain” value in series [2] is given as “approximately 4.3%”. The “Moisture sorption: weight gain” value in [2] (between 5 and 55% RH) is “approximately 0.3%”. The “Moisture sorption: additional weight gain” value in series [2] (between 55% and 95% RH) came out at 4.0%. The “Hygroscopicity based” value in series [2] was “hygroscopic”. Also, the “Temperature of solid form conversion in heat stress studies” value in series [7] (isothermal heating, 2 min) was “approximately 164 °C”. In addition, the “Temperature of conversion to B-type crystal form (VT-XRPD)” value in series [7] (variable temperature XRPD) is 120 °C. Besides, the “Temperature up to which the crystal form remains as such (VT-XRPD)” value in series [7] (variable temperature XRPD) was “up to 115 °C”. The solubility at 2 days in series [8] is under 71000 µg/mL.
For `Nc1nc(OCCc2ccc(Cl)cc2)nc2c1ncn2[C@@H]1O[C@H](CO)[C@@H](O)[C@H]1O` [F-type crystal form, 2-[2-(4-chlorophenyl)ethoxy]adenosine], in [1] (listed as F-type crystals), the “Solid form after exposure to ambient conditions” value is on record as “Amorphous/low crystalline material”. Also, the “Solid form after desolvation” value in [1] (vacuum oven and 60° C.) is “low crystalline mixture of A-type and B-type crystals”.

The values above are taken from patent US20100324279A1, “CRYSTAL FORMS OF 2-[2-(4-CHLOROPHENYL)ETHOXY]ADENOSINE” (priority 2007, published 2010).
